Test results: US12187758B2 (ROME Therapeutics, Inc., priority 2022, dated 2025)

Tests used:
Type in all cases: cell-based
THP1-Dual KO-TREX1 cells = experiment: THP1 TREX1 KO inhibition assay (type 1 interferon response); settings: Homo sapiens, 144 h, type 1 interferon (QUANTI-LUC), 1 μM 5-aza-2′-deoxycytidine, six days
Procedure: Exemplary compounds were tested for their ability to alter the type 1 interferon response in THP1 Dual TREX1 KG cells treated with 5-aza-2′-deoxycytidine. Assay procedures and results are described below.
THP1 Dual TREX1 KG cells were purchased from Invivogen. The THP1-Dual™ KO-TREX1 cells were cultured in RPMI 1640, 10% heat-inactivated fetal bovine serum, 25 mM HEPES, 10 μg/mL blasticidin, and 100 μg/mL zeocin. THP1-Dual™ KO-TREX1 cells were treated with a dose titration of a test compound alone or in the presence of 1 μM 5-aza-2′-deoxycytidine (Sigma-Aldrich, cat #189825). Type 1 Interferon and cell viability were assessed after six days of treatment.
Stock solution of the test compound was prepared in DMSO followed by a three-fold dilution in DMSO. Additional 50× dilution was prepared in cell culture media for each dilution. 10 μL of diluted test compound was then added to a 96-well plate.
THP1-Dual™ KO-TREX1 cells were treated with either 1×PBS or 1 μM 5-aza-2′-deoxycytidine. […] of the THP1-Dual™ KO-TREX1 cells from either treatment were added to each well of the 96-well plate containing the test compound titration at 50,000 cells/well. Cells were incubated at 37° C., 5% CO2 in a humidified incubator for six days. Cells treated with 1 μM 5-aza-2′-deoxycytidine were added at the same density as above and incubated at 37° C., 5% CO2 in a humidified incubator for six days. On day six, 25 μL of cell supernatant was transferred to a 96-well white-walled plate, followed by addition to each well of 50 μL of QUANTI-LUC solution containing stabilizer. Luminescence was detected on a plate reader according to the manufacturer's instructions.
The remaining cells were assessed for cell viability by adding 25 μL of CellTiter-Glo (Promega, G9683) solution to each well, and being placed on a shaker for 10 minutes at room temperature. Luminescence was detected on a plate reader, according to the manufacturer's instructions.
In the tables “A” represents values≤0.050 μM; “B” represents values from >0.050 μM to ≤0.100 μM; “C” represents values from >0.100 μM to ≤0.250 μM; “D” represents values from >0.250 μM to ≤1 μM; “E” represents values>1 μM; and “NT”=not tested: […]

[1] = tested on: SDH-A (succinate dehydrogenase-A); experiment: Mitochondria toxicity assay with PC3 cells, in-cell ELISA SDH-A; settings: 5 days treatment
Procedure: (§1) Exemplary compounds were tested for inhibition of expression of mitochondria DNA encoded proteins COX-1 […]. SDH-A (succinate dehydrogenase-A) is a control mitochondria protein encoded by nuclear DNA. Reduction in COX-1 expression indicates off target inhibition of mitochondria DNA synthesis which leads to mitochondrial toxicity. Assay procedures and results are described below.
(§2) PC3 cells were purchased from ATCC and cultured in F-12 Kaighn's modified medium (Hyclone), 10% heat-inactivated fetal bovine serum (Invitrogen), 1% Penicillin-Streptomycin (Invitrogen). PC3 cells were treated with a dose titration of a test compound on 96 well plates for 5 days at 37° C., 5% CO2 in a humidified incubator. The treatment plates are duplicated, one for in-cell ELISA for mitochondria proteins and one for cytotoxicity.
(§3) In-cell ELISA was performed to measure mitochondrial proteins using MitoBiogenesis In-Cell ELISA kit (Abcam) per manufacturer's instruction. The medium was aspirated from the compound treated cells, 100 μl per well of 4% paraformaldehyde (Solarbio) was added and cells were incubated at room temperature for 20 minutes. The cells were washed three times with PBS. 100 μl of 0.5% acetic acid was added per cell, and the cells were incubate at room temperature for 5 minutes. Cells were washed once with PBS. 100 μl per well of Permeabilization Buffer was added, and the cells incubate at room temperature for 30 minutes. The permeabilization buffer was removed and 200 μl per well 2× Blocking Buffer was added and the cells were incubated at room temperature for 2 hours. After removing the Blocking Buffer 100 μl per well of primary antibody to SDH-A or COX-1 was added, and the cells were incubated at 4° C. overnight. The primary antibody solution was removed and cells were washed 3 times with the Wash Buffer. 100 μl per well of AP- and HRP-labelled secondary antibodies was added, and the cells were incubated at room temperature for 1 hour. The cells were then washed 4 times with the Wash Buffer. For SDH-A detection, 100 μl per well AP Development Solution was added, and the cells were incubated at room temperature for 10 minutes. Cells were then read on CLARTO star^plus microplate reader (BMG Labtech) for kinetic readings at 405 nm for 5 minutes. […] The cells were then read on CLARTO star^plus microplate reader (BMG Labtech) for kinetic readings at 600 nm for 15 minutes.
(§4) In the table “A” represents values<1.0 μM; “B” represents values from >1.0 μM to ≤10.0 μM; “C” represents values from >10.0 μM to ≤50.0 μM; “D” represents values from >50.0 μM to ≤100.0 μM; and “E” represents values>100.0 μM.

[2] = Mitochondria toxicity assay with PC3 cells, in-cell ELISA COX-1; settings: 5 days treatment
Procedure: as §1, §2, §3, §4

PC3 cells = experiment: Mitochondria toxicity assay with PC3 cells, cytotoxicity (Cell Titer Glo); settings: Homo sapiens, PC-3, 120 h, 5 days treatment
Procedure: as §2
For the cytotoxicity assay, the medium from the cell viability plate was removed, 50 μL per well of Cell Titer Glo (Promega, G9683) was added. Then the cells incubated for 30 minutes at room temperature. Luminescence was read by Envision (PerkinElmer 2105).
as §4

SMILES | IC50 (THP1-Dual KO-TREX1 cells) [µM] | IC50 [1] [µM] | IC50 [2] [µM] | IC50 (PC3 cells) [µM]
CC#C[C@]1(CO)O[C@@H](n2cnc3c(N)nc(F)nc32)C[C@@H]1O [Compound 1, (2R,3S,5R)-5-(6-amino-2-fluoro-9H-purin-9-yl)-2-(hydroxymethyl)-2-(prop-1-yn-1-yl)tetrahydrofuran-3-ol] | > 1 | – | – | –
Cc1cn([C@H]2C[C@H](O)[C@](CO)(CCl)O2)c(=O)[nH]c1=O [Compound 4, 1-((2R,4S,5R)-5-(chloromethyl)-4-hydroxy-5-(hydroxymethyl)tetrahydrofuran-2-yl)-5-methylpyrimidine-2,4(1H,3H)-dione] | > 1 | > 100 | > 100 | > 100
C#C[C@]1(CO)O[C@@H](n2cnc3c(N)nc(Cl)nc32)[C@@H](F)[C@@H]1O [Compound 5, (2R,3R,4S,5R)-5-(6-amino-2-chloro-9H-purin-9-yl)-2-ethynyl-4-fluoro-2-(hydroxymethyl)tetrahydrofuran-3-ol] | > 1 | > 100 | 10 to 50 | > 100
O=c1nc(NO)ccn1[C@H]1C[C@H](O)[C@](CO)(CCl)O1 [Compound 6, 1-((2R,4S,5R)-5-(chloromethyl)-4-hydroxy-5-(hydroxymethyl)tetrahydrofuran-2-yl)-4-(hydroxyamino)pyrimidin-2(1H)-one] | > 1 | – | – | –
Cc1cn([C@H]2C[C@H](F)[C@](CO)(CCl)O2)c(=O)[nH]c1=O [Compound 7, 1-((2R,4S,5R)-5-(chloromethyl)-4-fluoro-5-(hydroxymethyl)tetrahydrofuran-2-yl)-5-methylpyrimidine-2,4(1H,3H)-dione] | > 1 | > 100 | > 100 | > 100
Nc1nc(F)nc2c1ncn2[C@H]1C[C@H](O)[C@](CO)(CCl)O1 [Compound 8, (2R,3S,5R)-5-(6-amino-2-fluoro-9H-purin-9-yl)-2-(chloromethyl)-2-(hydroxymethyl)tetrahydrofuran-3-ol] | > 1 | 1 to 10 | 1 to 10 | 1 to 10
Cc1cn([C@@H]2O[C@@](CO)(CCl)[C@@H](O)[C@H]2F)c(=O)[nH]c1=O [Compound 9, 1-((2R,3R,4R,5R)-5-(chloromethyl)-3-fluoro-4-hydroxy-5-(hydroxymethyl)tetrahydrofuran-2-yl)-5-methylpyrimidine-2,4(1H,3H)-dione] | > 1 | > 100 | > 100 | > 100
Cc1cn([C@H]2C[C@H](O)[C@](CO)(CCl)O2)c(=O)nc1N [Compound 11, 4-amino-1-((2R,4S,5R)-5-(chloromethyl)-4-hydroxy-5-(hydroxymethyl)tetrahydrofuran-2-yl)-5-methylpyrimidin-2(1H)-one] | > 1 | > 100 | > 100 | > 100
C#C[C@@H]1[C@H](n2ccc(N)nc2=O)O[C@@](CO)(CCl)[C@H]1O [Compound 17, 4-amino-1-((2R,3S,4S,5R)-5-(chloromethyl)-3-ethynyl-4-hydroxy-5-(hydroxymethyl)tetrahydrofuran-2-yl)pyrimidin-2(1H)-one] | > 1 | – | – | –
Nc1cnn([C@H]2C[C@H](O)[C@](CO)(CCl)O2)c(=O)n1 [Compound 18, 5-amino-2-((2R,4S,5R)-5-(chloromethyl)-4-hydroxy-5-(hydroxymethyl)tetrahydrofuran-2-yl)-1,2,4-triazin-3(2H)-one] | > 1 | – | – | –
C#C[C@@H]1[C@H](n2ccc(N)nc2=O)O[C@](C)(CO)[C@H]1O [Compound 20, 4-amino-1-((2R,3S,4S,5R)-3-ethynyl-4-hydroxy-5-(hydroxymethyl)-5-methyltetrahydrofuran-2-yl)pyrimidin-2(1H)-one] | > 1 | – | – | –
Nc1nc(=O)n([C@H]2C[C@H](O)[C@](CO)(CF)O2)cc1F [Compound 22, 4-amino-5-fluoro-1-((2R,4S,5R)-5-(fluoromethyl)-4-hydroxy-5-(hydroxymethyl)tetrahydrofuran-2-yl)pyrimidin-2(1H)-one] | 0.05 to 0.1 | > 100 | > 100 | > 100
N#C[C@]1(CO)O[C@@H](n2cnc3c(N)nc(F)nc32)C[C@@H]1O [Compound 26, (2R,3S,5R)-5-(6-amino-2-fluoro-9H-purin-9-yl)-3-hydroxy-2-(hydroxymethyl) tetrahydrofuran-2-carbonitrile] | > 1 | > 100 | 50 to 100 | > 100
C#C[C@]1(CO)O[C@@H](n2cnc3c(N)ncnc32)C[C@@H]1O [Compound 27, (2R,3S,5R)-5-(6-amino-9H-purin-9-yl)-2-ethynyl-2-(hydroxymethyl)tetrahydrofuran-3-ol] | > 1 | > 100 | > 100 | > 100
O=c1nc(NO)ccn1[C@@H]1O[C@@](CO)(CCl)[C@@H](O)[C@H]1F [Compound 28, 1-((2R,3R,4R,5R)-5-(chloromethyl)-3-fluoro-4-hydroxy-5-(hydroxymethyl)tetrahydrofuran-2-yl)-4-(hydroxyamino)pyrimidin-2(1H)-one] | > 1 | – | – | –
O=c1ccn([C@@H]2O[C@@](CO)(CCl)[C@@H](O)[C@H]2F)c(=O)[nH]1 [Compound 29, 1-((2R,3R,4R,5R)-5-(chloromethyl)-3-fluoro-4-hydroxy-5-(hydroxymethyl)tetrahydrofuran-2-yl)pyrimidine-2,4(1H,3H)-dione] | > 1 | – | – | –
C#C[C@]1(CO)O[C@@H](n2ccc(N)nc2=O)[C@H](F)[C@@H]1O [Compound 32, 4-amino-1-((2R,3R,4R,5R)-5-ethynyl-3-fluoro-4-hydroxy-5-(hydroxymethyl)tetrahydrofuran-2-yl)pyrimidin-2(1H)-one] | > 1 | – | – | –
C#C[C@]1(CO)O[C@@H](n2ccc(=O)[nH]c2=O)[C@H](F)[C@@H]1O [Compound 33, 1-((2R,3R,4R,5R)-5-ethynyl-3-fluoro-4-hydroxy-5-(hydroxymethyl)tetrahydro-furan-2-yl)pyrimidine-2,4(1H,3H)-dione] | > 1 | – | – | –
O=c1ccn([C@H]2C[C@H](O)[C@](CO)(CCl)O2)c(=O)[nH]1 [Compound 34, 1-((2R,4S,5R)-5-(chloromethyl)-4-hydroxy-5-(hydroxymethyl)tetrahydro-furan-2-yl)pyrimidine-2,4(1H,3H)-dione] | > 1 | – | – | –
C#C[C@]1(CO)O[C@@H](n2ccc(N)nc2=O)C[C@@H]1O [Compound 41, 4-amino-1-((2R,4S,5R)-5-ethynyl-4-hydroxy-5-(hydroxymethyl)tetrahydro-furan-2-yl)pyrimidin-2(1H)-one] | > 1 | – | – | –
